Experimental data taken from patent US4496572A, “Benzo-fused thromboxane synthetase inhibitors” (Pfizer Inc., priority 1981, dated 1985).

Key:
TxB2 production = assay: TxB2 generation in clotted whole blood after i.v. dosing (method of Patrono et al, RIA); type: in vivo, rabbits; conditions: Oryctolagus cuniculus, iv; for inhibition at 0.3 mg/kg: 0.3 mg/kg i.v.; for inhibition at 0.1 mg/kg: 0.1 mg/kg i.v.
Protocol: The method of Patrono et al is adapted to study the generation of TxB2 is whole blood samples removed from animals prior to and following drug treatment. Briefly, blood samples are taken into glass tubes and allowed to clot at 37° C. Serum is separated by centrifugation and the samples stored at -40° C. until assayed for TxB2, when appropriate dilutions of ethanol deproteinised samples are analysed by RIA. This technique is used in experiments with the test compounds to determine intravenous potency in anaesthetised rabbits:
Male New Zealand white rabbits (2.6-5.6 kg) are anaesthetised with sodium pentobarbitone (30 mg/kg i.v.) followed by urethane (500 mg/kg i.p.). After cannulation of the trachea, a carotid artery is catheterised for collection of blood samples. The catheter is kept patent by slow infusion (0.2 ml/minute) of sterile saline. Control carotid arterial blood samples are taken 30 and 5 minutes prior to administration of the test compound or vehicle (0.9% w/v NaCl, 0.2 ml/kg) via a marginal ear vein. Three groups of rabbits are used. The first group receive 0.03 mg/kg of the test compound followed, one hour later, by 0.1 mg/kg. Similarly, the second group receive 0.3 mg/kg, followed by 1 mg/kg. The third group receive vehicle, followed one hour later by a further vehicle injection. […] At each time point, a 1 ml blood sample is taken into a glass test tube, without anticoagulant, for TxB2 determination. For the latter, the blood sample is allowed to clot during a two hour incubation at 37° C. (which preliminary experiments had shown to give maximum TxB2 production) and the serum obtained by centrifugation. Serum samples are then processed through the TxB2 RIA after deproteinisation with ethanol and dilution with Isogel Tris buffer.

prostacyclin synthetase = conditions: pre-incubation of the enzyme with the inhibitor; cited from earlier work
aggregation of platelets = conditions: rats in vivo; cited from earlier work
[1] = rabbit, intravenous arachidonic acid; cited from earlier work
[2] = system: human blood platelet aggregation; conditions: human blood platelets; cited from earlier work

Row | Compound | inhibition at 0.3 mg/kg (TxB2 production; 2 min, 2 MIN post dose) [%] | inhibition at 0.1 mg/kg (TxB2 production; 0.25 h, 15 MIN post dose) [%] | inhibition at 0.3 mg/kg (TxB2 production; 0.25 h, 15 MIN post dose) [%] | inhibition at 0.1 mg/kg (TxB2 production; 0.5 h, 30 MIN post dose) [%] | inhibition at 0.3 mg/kg (TxB2 production; 0.75 h, 45 MIN post dose) [%] | inhibition at 0.3 mg/kg (TxB2 production; 1.25 h, 75 MIN post dose) [%] | inhibition at 0.1 mg/kg (TxB2 production; 2 min, 2 MIN post dose) [%] | inhibition at 0.3 mg/kg (TxB2 production; 0.5 h, 30 MIN post dose) [%] | inhibition at 0.1 mg/kg (TxB2 production; 0.75 h, 45 MIN post dose) [%] | inhibition at 0.1 mg/kg (TxB2 production; 1.25 h, 75 MIN post dose) [%] | inhibition of PGI2 production (prostacyclin synthetase) | prevention of platelet aggregation in extra corporeal loop of the abdominal aorta (aggregation of platelets) | protection from the lethal effect of arachidonic acid injection [1] | inhibitory activity in vitro against a variety of aggregating agents [2]
1 | Cc1c(Cc2cccnc2)sc2cc(C(=O)O)ccc12 | 90 | 76 | 91 | 46 | 71 | 52 | – | – | – | – | – | – | – | –
2 | Cc1c(Cc2cccnc2)ccc2ccc(C(=O)O)cc12 | 99 | 95 | 98 | 92 | 95 | 97 | – | – | – | – | – | – | – | –
3 | Cc1c(Cn2ccnc2)sc2ccc(C(=O)O)cc12 | – | 98 | 94 | – | – | – | 100 | 95 | 100 | 98 | – | – | – | –
4 | O=C(O)c1ccc2oc(Cn3ccnc3)c(Br)c2c1 | 87 | 52 | 84 | 33 | 65 | 41 | – | – | – | – | – | – | – | –
5 | Cc1c(Cn2ccnc2)oc2ccc(C(=O)O)cc12 | 92 | 47 | 83 | 37 | 65 | 51 | – | – | – | – | – | – | – | –
6 | Cc1c(Cn2ccnc2)sc2cc(C(=O)O)ccc12 | 100 | 100 | 100 | 100 | 100 | 100 | – | – | – | – | – | – | – | –
7 | Cc1c(Cn2ccnc2)n(C)c2ccc(C(=O)O)cc12 | 99 | 85 | 95 | 84 | 93 | 81 | – | – | – | – | – | – | – | –
8 | 15-hydroperoxyarachidonic acid | – | – | – | – | – | – | – | – | – | – | completely inhibited | – | – | –
9 | CSc1c(Cn2ccnc2)sc2ccc(C(=O)O)cc12 | 99 | 93 | 98 | 95 | 97 | 95 | – | – | – | – | – | – | – | –
10 | O=C(O)c1ccc2sc(Cn3ccnc3)cc2c1 | – | – | 96 | – | – | – | – | 89 | – | – | – | – | – | –
11 | O=C1C(CC[S+]([O-])c2ccccc2)C(=O)N(c2ccccc2)N1c1ccccc1 (centres unmarked) [sulphinpyrazone] | – | – | – | – | – | – | – | – | – | – | – | prevent the aggregation of platelets | protect the rabbit from the lethal effect | show inhibitory activity
12 | O=C(O)c1ccc2sc(Cn3ccnc3)c(Cl)c2c1 | 99 | 99 | 100 | 96 | 100 | 99 | – | – | – | – | – | – | – | –
13 | Cc1c(Cc2cccnc2)sc2ccc(C(=O)O)cc12 | 98 | 96 | 99 | 85 | 97 | 83 | – | – | – | – | – | – | – | –
14 | CC(=O)Oc1ccccc1C(=O)O [aspirin] | – | – | – | – | – | – | – | – | – | – | – | – | protect the rabbit from the lethal effect | show inhibitory activity
15 | Cc1c(Sc2cccnc2)sc2ccc(C(=O)O)cc12 | 98 | 29 | 81 | 22 | 36 | 33 | – | – | – | – | – | – | – | –
16 | O=C(O)c1ccc2oc(Cn3ccnc3)c(Cl)c2c1 | 98 | 88 | 97 | 82 | 93 | 86 | – | – | – | – | – | – | – | –
